Results: patent US20140038181A1, “CHEMICALLY SUBSTITUTED THERMOSENSITIVE PROBES AND COFACTORS FOR HOT START LIGATION” (TRILINK BIOTECHNOLOGIES, priority 2011, published 2014)

Test: Thermal conversion of 2′,3′-substituted ATP to unsubstituted ATP in ligase buffer at 95° C. (HPLC)
Format: physicochemical
Conditions: for Concentration of unsubstituted ATP: 1 mM 2′,3′-substituted ATP
Experimental: The reactions were monitored by analysis of the aliquot of incubated mixture by reverse-phase and anion-exchange HPLC.

SMILES: CC(C)(C)OCCO[C@@H]1[C@H](OCCOC(C)(C)C)[C@@H](COP(=O)(O)OP(=O)(O)OP(=O)(O)O)O[C@H]1n1cnc2c(N)ncnc21 [2′,3′-TBE-substituted ATP, 2′,3′-O-bis-[2-(tert-butoxy)]ethyl-adenosine-5′-triphosphate]
- Concentration of unsubstituted ATP (ligase buffer pH 7.5, 5 min): 569 µM
- Concentration of unsubstituted ATP (ligase buffer pH 7.5, 10 min): 857 µM
- Concentration of unsubstituted ATP (ligase buffer pH 7.5, 20 min): 970 µM
- cofactor molecules converted to the unmodified ATP (2 min, ligation buffer): about 20%
- conversion to unmodified ATP (20 min, ligation buffer): more than 85%
